Assay results taken from patent publication US20130303533A1, “AZOLOPYRIDINE AND AZOLOPYRIMIDINE COMPOUNDS AND METHODS OF USE THEREOF” (AMBIT BIOSCIENCES CORPORATION, priority 2010, published 2013).

What was measured:
[1] = test system: GM-CSFR/JAK2/STAT5 pathway; assay: CSTF-1 cell-based reporter assay; conditions: Homo sapiens; csTF-1 cells, GM-CSF at 2 ng/mL, 4 hours, beta-lactamase reporter; read-out: Cell Assay: CS TF-1 reporter assay IC50
Protocol: CSTF-1 Cell-Based Reporter Assay
CSTF-1 cells are derived from the human erythroleukemia cell line that is growth dependent on GM-CSF and has an intact GM-CSFR/JAK2/STAT5 pathway. The cell line contains stably integrated beta-lactamase reporter gene under the control of the […] (irf 1) response element recognized by the activated transcription factor STAT5. csTF-1 cells (Invitrogen K1219) were washed with assay media (97% OPTIMEM/0.5% dialyzed FBS/0.1 mM NEAA/1 mM Na pyr/P/S) and seeded in the same media at 5×10^5 cell/mL in T150 flask. After 16 hour incubation, cells were seeded at 2×10^5 cell/well in 50 μl volume, into Costar, clear bottom, 96-well assay plates. Serial dilutions of compounds were added to the plates with final DMSO concentration at 0.5% and GM-CSF at 2 ng/mL and the plates were then incubated at 30° C. and 5% CO2 for 4 hours. The plates were brought to room temperature before adding Substrate Mixture according to manufacturer's protocol (Invitrogen, Catalog #K1085). The assay plates containing the substrate mixture were incubated in the dark at room temperature for 2 hours. Blue and green fluorescence was measured with excitation at 409 nm and emission at 460 nm (for blue) and excitation at 409 nm and emission at 530 nm (for green) using Spectra Max Gemini EM.

JAK2 = molecular target: T1, JAK2 (Homo sapiens, UniProt O60674); assay: Competition binding assay to determine binding constants (Kd), JAK2
T1 construct: made in house; host or cells: T7 phage display or HEK-293 cells (alternatives)
Excerpt: (§1) Competition Binding Assay to Determine Binding Constants (Kd) of the Compounds Against JAK Kinases
(§2) Competition binding assays used herein were developed, validated and performed as described in Fabian et al., Nature Biotechnology 2005, 23, 329-336. Kinases were produced as fusions to T7 phage (See, Fabian et al. or WO04/015142) or alternatively, the kinases were expressed in HEK-293 cells and subsequently tagged with DNA for PCR detection (See, WO08/005,310). For the binding assays, streptavidin-coated magnetic beads were treated with biotinylated affinity ligands for 30 min at rt to generate affinity resins. The liganded beads were blocked with excess biotin and washed with blocking buffer (SeaBlock (Pierce), 1% BSA, 0.05% Tween 20, 1 mM DTT) to remove unbound ligand and to reduce non-specific binding. Binding reactions were assembled by combining kinase, liganded affinity beads, and test compounds in 1× binding buffer (20% SeaBlock, 0.17×PBS, 0.05% Tween 20, 6 mM DTT). Test compounds were prepared as 100× stocks in DMSO and rapidly diluted into the aqueous environment. DMSO was added to control assays lacking a test compound. Primary screen interactions were performed in polypropylene 384-well plates in a final volume of 34 μL, while Kd determinations were performed in polystyrene 96-well plates in a final volume of 135 μL. The assay plates were incubated at room temperature with shaking for 1 hour, long enough for binding reactions to reach equilibrium, and the affinity beads were washed extensively with wash buffer (1×PBS, 0.05% Tween 20) to remove unbound protein. The beads were then resuspended in elution buffer (1×PBS, 0.05% Tween 20, 2 μM non-biotinylated affinity ligand) and incubated at room temperature with shaking for 30 min. The kinase concentration in the eluates was measured by quantitative PCR. Each kinase was tested individually against each compound. Kds were determined using eleven serial threefold dilutions. A selectivity score, which is a quantitative measure of selectivity of a compound against a panel of enzymes, may be calculated for a compound by dividing the number of enzymes for which a compound meets a set criteria, (for example, a binding constant of 100 nM or less), by the total number of enzymes tested.

JAK3 = molecular target: T2, JAK3 (Homo sapiens, UniProt P52333); assay: Competition binding assay to determine binding constants (Kd), JAK3
T2 construct: made in house; host or cells: T7 phage display or HEK-293 cells (alternatives)
T2 sequence (P52333 1-1124): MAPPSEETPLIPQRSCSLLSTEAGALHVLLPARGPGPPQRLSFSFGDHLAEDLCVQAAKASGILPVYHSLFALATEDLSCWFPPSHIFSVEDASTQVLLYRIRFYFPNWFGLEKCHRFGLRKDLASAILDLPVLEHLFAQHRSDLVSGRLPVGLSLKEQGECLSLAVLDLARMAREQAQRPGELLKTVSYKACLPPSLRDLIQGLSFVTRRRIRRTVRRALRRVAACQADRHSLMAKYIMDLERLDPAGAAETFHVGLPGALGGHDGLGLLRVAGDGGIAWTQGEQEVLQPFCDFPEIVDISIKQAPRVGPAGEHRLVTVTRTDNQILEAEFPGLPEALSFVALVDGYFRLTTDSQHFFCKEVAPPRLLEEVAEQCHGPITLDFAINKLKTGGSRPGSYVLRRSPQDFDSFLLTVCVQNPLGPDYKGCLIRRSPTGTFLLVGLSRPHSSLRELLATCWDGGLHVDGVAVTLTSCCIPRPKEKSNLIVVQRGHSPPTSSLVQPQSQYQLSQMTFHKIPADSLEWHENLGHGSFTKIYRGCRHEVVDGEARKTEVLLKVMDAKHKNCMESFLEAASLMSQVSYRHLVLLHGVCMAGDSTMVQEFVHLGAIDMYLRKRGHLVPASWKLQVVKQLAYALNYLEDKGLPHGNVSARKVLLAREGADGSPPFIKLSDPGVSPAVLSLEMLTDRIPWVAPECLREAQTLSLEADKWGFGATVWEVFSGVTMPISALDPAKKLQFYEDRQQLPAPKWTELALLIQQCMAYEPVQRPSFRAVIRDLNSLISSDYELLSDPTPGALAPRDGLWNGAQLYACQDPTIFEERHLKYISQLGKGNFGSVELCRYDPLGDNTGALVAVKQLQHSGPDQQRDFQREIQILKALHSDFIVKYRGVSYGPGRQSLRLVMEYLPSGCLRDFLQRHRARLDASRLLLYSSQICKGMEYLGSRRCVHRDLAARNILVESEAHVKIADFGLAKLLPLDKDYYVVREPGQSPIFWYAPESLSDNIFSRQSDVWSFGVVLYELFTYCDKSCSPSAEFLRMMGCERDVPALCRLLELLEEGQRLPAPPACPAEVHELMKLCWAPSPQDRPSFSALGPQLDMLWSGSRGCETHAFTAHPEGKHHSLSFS
Excerpt: as §1, §2

TYK2 = molecular target: T3, TYK2 (Homo sapiens, UniProt P29597); assay: Competition binding assay to determine binding constants (Kd), TYK2
T3 construct: made in house; host or cells: T7 phage display or HEK-293 cells (alternatives)
Excerpt: as §1, §2

T1 sequence (O60674 whole entry): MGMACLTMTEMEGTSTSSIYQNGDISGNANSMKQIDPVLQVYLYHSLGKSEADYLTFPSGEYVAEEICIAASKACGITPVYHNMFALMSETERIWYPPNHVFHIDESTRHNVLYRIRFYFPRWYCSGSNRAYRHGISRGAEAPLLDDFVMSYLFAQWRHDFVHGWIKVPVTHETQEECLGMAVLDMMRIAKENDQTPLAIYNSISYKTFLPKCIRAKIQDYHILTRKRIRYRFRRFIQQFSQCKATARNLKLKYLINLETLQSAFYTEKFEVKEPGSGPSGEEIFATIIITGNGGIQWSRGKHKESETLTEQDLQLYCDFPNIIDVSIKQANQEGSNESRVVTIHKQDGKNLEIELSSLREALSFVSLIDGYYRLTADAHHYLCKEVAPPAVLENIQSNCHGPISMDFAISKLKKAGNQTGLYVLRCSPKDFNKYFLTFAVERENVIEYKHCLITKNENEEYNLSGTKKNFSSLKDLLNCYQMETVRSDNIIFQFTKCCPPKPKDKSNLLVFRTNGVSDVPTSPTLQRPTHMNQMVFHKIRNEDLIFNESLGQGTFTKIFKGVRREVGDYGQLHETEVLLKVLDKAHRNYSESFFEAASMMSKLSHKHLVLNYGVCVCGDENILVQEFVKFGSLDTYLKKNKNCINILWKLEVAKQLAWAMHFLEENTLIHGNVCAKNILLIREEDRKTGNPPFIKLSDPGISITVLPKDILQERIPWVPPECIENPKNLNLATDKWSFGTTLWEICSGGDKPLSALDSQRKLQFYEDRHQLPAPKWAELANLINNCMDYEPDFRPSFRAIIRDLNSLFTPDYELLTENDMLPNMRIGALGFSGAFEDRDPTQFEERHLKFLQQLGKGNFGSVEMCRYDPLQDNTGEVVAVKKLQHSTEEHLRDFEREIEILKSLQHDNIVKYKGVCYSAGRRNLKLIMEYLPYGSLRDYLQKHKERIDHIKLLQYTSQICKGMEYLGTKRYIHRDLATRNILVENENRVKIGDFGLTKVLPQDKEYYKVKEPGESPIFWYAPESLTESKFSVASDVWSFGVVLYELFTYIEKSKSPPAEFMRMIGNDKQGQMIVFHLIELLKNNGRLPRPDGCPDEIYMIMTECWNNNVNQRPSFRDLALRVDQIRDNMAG
T3 sequence (P29597 whole entry): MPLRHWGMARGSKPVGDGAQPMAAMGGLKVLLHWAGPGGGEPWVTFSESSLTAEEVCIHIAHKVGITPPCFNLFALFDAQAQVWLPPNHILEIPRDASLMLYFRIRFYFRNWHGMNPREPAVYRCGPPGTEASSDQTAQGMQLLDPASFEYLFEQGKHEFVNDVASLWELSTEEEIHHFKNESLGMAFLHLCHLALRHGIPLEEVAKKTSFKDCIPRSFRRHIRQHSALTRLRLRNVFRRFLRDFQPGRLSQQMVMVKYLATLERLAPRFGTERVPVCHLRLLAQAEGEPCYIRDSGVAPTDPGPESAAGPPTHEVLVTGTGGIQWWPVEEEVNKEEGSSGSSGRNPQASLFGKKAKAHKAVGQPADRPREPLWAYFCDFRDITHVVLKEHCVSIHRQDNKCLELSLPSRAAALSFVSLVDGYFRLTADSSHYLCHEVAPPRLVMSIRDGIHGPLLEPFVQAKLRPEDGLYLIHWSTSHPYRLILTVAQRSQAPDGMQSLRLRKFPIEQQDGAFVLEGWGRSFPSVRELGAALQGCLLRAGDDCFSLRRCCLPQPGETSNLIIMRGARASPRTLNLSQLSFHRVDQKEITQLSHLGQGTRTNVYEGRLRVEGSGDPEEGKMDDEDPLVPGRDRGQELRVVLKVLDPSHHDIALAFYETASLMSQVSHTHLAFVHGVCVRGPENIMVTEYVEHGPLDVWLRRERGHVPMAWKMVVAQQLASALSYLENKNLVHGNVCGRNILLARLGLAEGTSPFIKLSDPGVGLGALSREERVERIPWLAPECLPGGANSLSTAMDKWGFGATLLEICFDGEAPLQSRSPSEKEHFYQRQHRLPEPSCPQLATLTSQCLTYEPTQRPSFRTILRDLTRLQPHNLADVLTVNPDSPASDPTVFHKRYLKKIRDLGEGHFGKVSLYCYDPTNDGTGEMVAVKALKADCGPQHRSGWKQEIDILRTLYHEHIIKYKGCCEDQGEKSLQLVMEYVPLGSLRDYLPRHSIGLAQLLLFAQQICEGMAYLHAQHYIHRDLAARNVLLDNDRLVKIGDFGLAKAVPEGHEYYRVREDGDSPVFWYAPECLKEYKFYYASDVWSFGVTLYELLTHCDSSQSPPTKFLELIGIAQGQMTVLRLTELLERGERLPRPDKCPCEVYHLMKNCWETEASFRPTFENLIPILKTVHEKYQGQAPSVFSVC

SMILES | IC50 [1] | Kd (JAK2) | Kd (JAK3) | Kd (TYK2)
CS(=O)(=O)CCn1ccc2c(Nc3cc[nH]n3)nc(S(=O)(=O)c3ccc(F)cc3)nc21 [Example 18, 2-(4-fluorophenylsulfonyl)-7-(2-(methylsulfonyl)ethyl)-N-(1H-pyrazol-3-yl)-7H-pyrrolo[2,3-d]pyrimidin-4-amine] | 100 to 500 nM | ≤ 1 nM | ≤ 10 nM | ≤ 10 nM
Cc1cc(Nc2nc(C(F)(F)c3ccc(F)cc3)nc3nn(C)cc23)n[nH]1 [Example 20, 6-(difluoro(4-fluorophenyl)methyl)-2-methyl-N-(5-methyl-1H-pyrazol-3-yl)-2H-pyrazolo[3,4-d]pyrimidin-4-amine] | 100 to 500 nM | ≤ 1 nM | 10 to 100 nM | ≤ 10 nM
Cn1cc2c(Nc3cc[nH]n3)nc(C(F)(F)c3ccc(F)cc3)nc2n1 [Example 21, 6-(difluoro(4-fluorophenyl)methyl)-2-methyl-N-(1H-pyrazol-3-yl)-2H-pyrazolo[3,4-d]pyrimidin-4-amine] | 100 to 500 nM | ≤ 1 nM | 10 to 100 nM | ≤ 10 nM
Cc1cc(Nc2nc(C(F)(F)c3ccc(F)cc3)nc3[nH]ncc23)n[nH]1 [Example 30, 6-(difluoro(4-fluorophenyl)methyl)-N-(5-methyl-1H-pyrazol-3-yl)-1H-pyrazolo[3,4-d]pyrimidin-4-amine] | ≤ 100 nM | ≤ 1 nM | 10 to 100 nM | ≤ 10 nM
Cc1cc(Nc2nc(C(F)(F)c3ccc(F)cc3)nc3c2cnn3CCN2CCOCC2)n[nH]1 [Example 32, 6-(difluoro(4-fluorophenyl)methyl)-N-(5-methyl-1H-pyrazol-3-yl)-1-(2-morpholinoethyl)-1H-pyrazolo[3,4-d]pyrimidin-4-amine] | 100 to 500 nM | 1 to 10 nM | 10 to 100 nM | ≤ 10 nM
C=Cn1ncc2c(Nc3cc(C)[nH]n3)nc(C(F)(F)c3ccc(F)cc3)nc21 [Example 33, 6-(difluoro(4-fluorophenyl)methyl)-N-(5-methyl-1H-pyrazol-3-yl)-1-vinyl-1H-pyrazolo[3,4-d]pyrimidin-4-amine] | 100 to 500 nM | 1 to 10 nM | 10 to 100 nM | 10 to 100 nM

The remaining lines, values ahead:

IC50 [1] | Kd (JAK2) | Kd (JAK3) | Kd (TYK2) | SMILES
100 to 500 nM | ≤ 1 nM | ≤ 10 nM | ≤ 10 nM | Cc1cc(Nc2nc(S(=O)(=O)c3ccc(F)cc3)nc3c2ccn3CCS(C)(=O)=O)n[nH]1 [Example 17, 2-(4-fluorophenylsulfonyl)-N-(5-methyl-1H-pyrazol-3-yl)-7-(2-(methylsulfonyl)ethyl)-7H-pyrrolo[2,3-d]pyrimidin-4-amine]
≤ 100 nM | 1 to 10 nM | ≤ 10 nM | ≤ 10 nM | Cc1cc(Nc2nc(S(=O)(=O)c3ccc(F)cc3)nc3c2ccn3CCN2CCOCC2)n[nH]1 [Example 19, 2-(4-fluorophenylsulfonyl)-N-(5-methyl-1H-pyrazol-3-yl)-7-(2-morpholinoethyl)-7H-pyrrolo[2,3-d]pyrimidin-4-amine]
100 to 500 nM | ≤ 1 nM | 10 to 100 nM | ≤ 10 nM | Cc1cc(Nc2nc(S(=O)(=O)c3ccc(F)cc3)nc3c2cnn3CCO)n[nH]1 [Example 23, 2-(6-(4-fluorophenylsulfonyl)-4-(5-methyl-1H-pyrazol-3-ylamino)-1H-pyrazolo[3,4-d]pyrimidin-1-yl)ethanol]
≤ 100 nM | ≤ 1 nM | 10 to 100 nM | ≤ 10 nM | CCn1ncc2c(Nc3cc(C)[nH]n3)nc(S(=O)(=O)c3ccc(F)cc3)nc21 [Example 24, 1-ethyl-6-(4-fluorophenylsulfonyl)-N-(5-methyl-1H-pyrazol-3-yl)-1H-pyrazolo[3,4-d]pyrimidin-4-amine]
100 to 500 nM | 1 to 10 nM | > 100 nM | ≤ 10 nM | Cc1cc(Nc2nc(S(=O)(=O)c3ccc(F)cc3)nc3c2cnn3C(C)(C)C)n[nH]1 [Example 25, 1-tert-butyl-6-(4-fluorophenylsulfonyl)-N-(5-methyl-1H-pyrazol-3-yl)-1H-pyrazolo[3,4-d]pyrimidin-4-amine]
100 to 500 nM | ≤ 1 nM | 10 to 100 nM | ≤ 10 nM | Cc1cc(Nc2nc(C(F)(F)c3ccc(F)cc3)nc3c2cnn3C)n[nH]1 [Example 26, 6-(difluoro(4-fluorophenyl)methyl)-1-methyl-N-(5-methyl-1H-pyrazol-3-yl)-1H-pyrazolo[3,4-d]pyrimidin-4-amine]
100 to 500 nM | ≤ 1 nM | 10 to 100 nM | ≤ 10 nM | Cc1cc(Nc2nc(S(=O)(=O)c3ccc(F)cc3)nc3[nH]ncc23)n[nH]1 [Example 27, 6-(4-fluorophenylsulfonyl)-N-(5-methyl-1H-pyrazol-3-yl)-1H-pyrazolo[3,4-d]pyrimidin-4-amine]
100 to 500 nM | ≤ 1 nM | 10 to 100 nM | ≤ 10 nM | Cc1cc(Nc2nc(S(=O)(=O)c3ccc(F)cc3)nc3c2cnn3C2CCOCC2)n[nH]1 [Example 28, 6-(4-fluorophenylsulfonyl)-N-(5-methyl-1H-pyrazol-3-yl)-1-(tetrahydro-2H-pyran-4-yl)-1H-pyrazolo[3,4-d]pyrimidin-4-amine]
100 to 500 nM | ≤ 1 nM | 10 to 100 nM | ≤ 10 nM | Cc1cc(Nc2nc(S(=O)(=O)c3ccc(F)cc3)nc3c2cnn3CCN2CCOCC2)n[nH]1 [Example 29, 6-(4-fluorophenylsulfonyl)-N-(5-methyl-1H-pyrazol-3-yl)-1-(2-morpholinoethyl)-1H-pyrazolo[3,4-d]pyrimidin-4-amine]
> 500 nM | 1 to 10 nM | > 100 nM | 10 to 100 nM | Cc1cc(Nc2nc(S(=O)(=O)c3ccc(F)cc3)nc3c2cnn3-c2ccccc2)n[nH]1 [Example 31, 6-(4-fluorophenylsulfonyl)-N-(5-methyl-1H-pyrazol-3-yl)-1-phenyl-1H-pyrazolo[3,4-d]pyrimidin-4-amine]
